Substitutions are numbered along the chain they refer to. Read-outs that look alike come from different tables or passages of the source. Some results are limits rather than exact numbers.

Experiment [1] deals with T1, DR4=HLA-DR(α1*0101,α1*0401) (Homo sapiens, UniProt P01903+P01911, A100K/A169T/F76Y/I96L/K127E/L162R/M171V/N62H/P40V/Q125Y/R42H/S133A/S149N/S66Y/V115G/V209L/W38E).
T1 construct: endogenous in cells; host or cells: BOLETH (EBV homozygous B cell line)
The experiment can be described thus: biochemical. It counts as binding.

Experiment [2] addresses T2, DR7=HLA-DR(α1*0101,α1*0701) (Homo sapiens, UniProt P01903+P01911, A100R/A102G/A103Q/D57E/D86V/E43K/F76Y/K127E/L162R/M171V/P40G/Q125H/Q99D/R33Q/R42Y/R54Q/S133A/S66F/T210M/V115G/Y107V/Y59L/Y89S).
T2 construct: endogenous in cells; host or cells: EBV homozygous human B cell line
The experiment can be described thus: HLA-DR specific binding assay, DR7.

Experiment [3] deals with T3, DR11=HLA-DR(α1*0101,α1*1101) (Homo sapiens, UniProt P01903+P01911, A100R/A169T/A87E/I96F/K41T/L162R/M171V/P40S/Q125H/Q178H/Q39Y/Q99D/R42S/S66Y/T262R/V115G/W38E).
T3 construct: endogenous in cells; host or cells: SWEIG (EBV homozygous B cell line)
As to the kind of experiment: biochemical. It counts as binding.

The target of experiment [4] is T4, DR15=HLA-DR(α1*0101,α1*1501) (Homo sapiens, UniProt P01903+P01911).
T4 construct: endogenous in cells; host or cells: EBV homozygous human B cell line
The experiment can be described thus: HLA-DR specific binding assay, DR15.

The target of experiment [5] is T5, DRB5=HLA-DR(α1*0101,α5*0101) (Homo sapiens, UniProt P01903+Q30154).
T5 construct: endogenous in cells; host or cells: EBV homozygous human B cell line
The experiment can be described thus: biochemical. Format: binding.

The target in experiment [6] is T6, DP402 DP (α1*0101, α1*0402) (Homo sapiens, UniProt P04440+P20036, A65V/A84D/A85E/L207M).
T6 sequence (P20036 29-260): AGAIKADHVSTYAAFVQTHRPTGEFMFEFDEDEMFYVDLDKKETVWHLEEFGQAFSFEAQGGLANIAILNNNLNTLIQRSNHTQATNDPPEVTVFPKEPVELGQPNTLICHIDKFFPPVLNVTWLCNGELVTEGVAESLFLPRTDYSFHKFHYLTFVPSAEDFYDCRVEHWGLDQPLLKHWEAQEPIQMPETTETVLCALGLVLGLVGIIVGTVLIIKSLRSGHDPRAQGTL
T6 sequence (P04440 30-258 A65V/A84D/A85E): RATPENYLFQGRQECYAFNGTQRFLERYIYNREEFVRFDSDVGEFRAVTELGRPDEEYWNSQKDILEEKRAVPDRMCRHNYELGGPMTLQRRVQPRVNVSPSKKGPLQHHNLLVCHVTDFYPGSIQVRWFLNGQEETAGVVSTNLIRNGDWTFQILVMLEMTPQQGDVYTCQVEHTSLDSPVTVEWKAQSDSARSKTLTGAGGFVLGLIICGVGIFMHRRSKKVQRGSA
As to the kind of experiment: biochemical. It counts as binding.

The subject of experiment [7] is lymphocytes obtained from HSV-1 infected H-2^d mice. The experiment can be described thus: HSV-primed T-cell responses to gD peptides in HSV-1 infected mice. Format: cell-based. Conditions: for T-cell responses recalled in HSV infected mice: HSV infected H-2^d mice (FIG. 6); for immunodominance of epitopes in HSV-primed T-cell responses: HSV-1 infected H-2^d mice. The protocol:
Twelve days after the second immunization, spleen and inguinal lymph nodes (LN) were removed and placed into ice-cold serum free HL-1 medium supplemented with 15 mM HEPES, 5×10^−5 M β-mercaptoethanol, 2 mM glutamine, 50 U of penicillin and 50 μg of streptomycin (GIBCO-BRL, Grand Island, N.Y.) (complete medium, CM). The cells were cultured in 96-well plates at 5×10^5 cells/well in CM, with recall or control peptide at 30, 10, 3, 1, or 0.3 μg/ml concentration, as previously described in (BenMohamed et al., 2000 and 2002). The cell suspensions were incubated for 72 h at 37° C. in 5% CO2. One μCi (micro-curie) of (^3H)-thymidine (Dupont MEN, Boston, Mass.) was added to each well during the last 16 h of culture. The incorporated radioactivity was determined by harvesting cells onto glass fiber filters and counted on a Matrix 96 direct ionization-counter (Packard Instruments, Meriden, Conn.). Results were expressed as the mean cpm of cell-associated (^3H)-thymidine recovered from wells containing Ag minus the mean cpm of cell-associated (^3H)-thymidine recovered from wells without Ag (A cpm) (average of triplicate). The Stimulation Index (SI) was calculated as the mean cpm of cell-associated (^3H)-thymidine recovered from wells containing Ag divided by the mean cpm of cell-associated (^3H)-thymidine recovered from wells without Ag (average of triplicate). For all experiments the irrelevant control peptide gB141-165 and the T-cell mitogen Concanavalin A (ConA) (Sigma, St. Louis, Mo.) were used as negative and positive controls, respectively. Proliferation results were confirmed by repeating each experiment twice. A T-cell proliferative response was considered positive when A cpm>1000 and SI>2.
To define the fine specificity of broadly reactive T-cells associated with viral immunity and to explore immunodominance in the context of HSV infection, proliferation of lymphocytes obtained from twenty HSV-1 infected H-2^d mice were evaluated using the twelve gD peptides as Ag (FIG. 6). […] Despite a difference between individual mice, a unique array of T-cell responses was identified for each of the twenty infected mice analyzed.

In experiment [8] the target is T7, DP401=HLA-DP(α1*0101,α1*0401) (Homo sapiens, UniProt P04440+P20036).
T7 sequence (P20036 32-260 limits assumed): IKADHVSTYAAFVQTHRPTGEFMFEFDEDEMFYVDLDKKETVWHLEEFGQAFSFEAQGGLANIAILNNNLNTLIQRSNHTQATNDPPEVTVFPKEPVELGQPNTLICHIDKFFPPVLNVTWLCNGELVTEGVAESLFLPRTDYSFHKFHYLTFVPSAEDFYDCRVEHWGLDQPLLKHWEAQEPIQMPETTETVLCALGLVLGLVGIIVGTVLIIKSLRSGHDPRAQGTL
T7 sequence (P04440 30-258): T6 sequence (P04440 30-258 A65V/A84D/A85E) with V36A, D55A, E56A
As to the kind of experiment: biochemical. It counts as binding.

Setting [9] is: Table V, […], read-out: IC50 DRB5.
[10] abbreviates: Class II MHC allele DR4, read-out: IC50, DR4.
Where [11] appears, read: Table V, […], read-out: IC50 DR4.

T5 sequence (Q30154 30-266, other chains not shown): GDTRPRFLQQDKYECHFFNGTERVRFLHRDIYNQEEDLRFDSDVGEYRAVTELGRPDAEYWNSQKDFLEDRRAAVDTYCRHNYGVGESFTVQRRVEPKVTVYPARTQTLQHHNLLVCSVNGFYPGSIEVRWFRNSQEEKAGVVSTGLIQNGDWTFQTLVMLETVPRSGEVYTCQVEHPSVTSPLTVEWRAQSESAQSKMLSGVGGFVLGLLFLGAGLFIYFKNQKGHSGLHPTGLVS

For `CC[C@H](C)[C@H](NC(=O)[C@H](CO)NC(=O)[C@H](CC(=O)O)NC(=O)[C@@H](NC(=O)[C@@H](NC(=O)[C@@H](NC(=O)CNC(=O)[C@H](CCC(N)=O)NC(=O)[C@H](CCC(N)=O)NC(=O)[C@H](Cc1ccc(O)cc1)NC(=O)[C@H](C)NC(=O)[C@H](CCC(N)=O)NC(=O)[C@@H]1CCCN1C(=O)[C@H](CO)NC(=O)[C@H](CC(C)C)NC(=O)[C@H](CS)NC(=O)[C@H](C)NC(=O)[C@@H](N)CO)C(C)C)[C@@H](C)O)C(C)C)C(=O)NCC(=O)N[C@@H](CCSC)C(=O)N[C@@H](CC(C)C)C(=O)N1CCC[C@H]1C(=O)N[C@@H](CCCNC(=N)N)C(=O)N[C@@H](Cc1ccccc1)C(=O)N[C@H](C(=O)N1CCC[C@H]1C(=O)N[C@@H](CCC(=O)O)C(=O)N[C@@H](CC(N)=O)C(=O)N[C@@H](CCC(N)=O)C(=O)N[C@@H](CCCNC(=N)N)C(=O)N[C@H](C(=O)N[C@H](C(=O)N[C@@H](C)C(=O)N[C@H](C(=O)N[C@@H](Cc1ccc(O)cc1)C(=O)O)C(C)C)C(C)C)[C@@H](C)O)[C@@H](C)CC` [HSV 37], the IC50 in experiment [1] (IC50, DR4) was found to be 40 nM; in experiment [1] (IC50 DR4), 40 nM; in experiment [2], 200 nM; in experiment [3] (Class II MHC allele DR11, read-out: IC50, DR11), 44 nM; in experiment [3] (Table V, […], read-out: IC50 DR11), 44 nM; in experiment [4], 13 nM. Besides, the IC50 in experiment [5] (setting [9]) turned out to be 68 nM; in experiment [6] (Class II MHC allele DP402), 167 nM; in experiment [6] (Table V, […]), 167 nM. In experiment [7], the “T-cell responses recalled in HSV infected mice” value is recorded as “either low or no response”.

Take `CC[C@H](C)[C@H](NC(=O)[C@H](CO)NC(=O)[C@@H]1CCCN1C(=O)[C@@H](NC(=O)[C@H](Cc1c[nH]cn1)NC(=O)[C@H](Cc1c[nH]c2ccccc12)NC(=O)[C@H](CC(N)=O)NC(=O)[C@@H]1CCCN1C(=O)[C@@H]1CCCN1C(=O)[C@@H](NC(=O)[C@H](CCC(N)=O)NC(=O)[C@@H]1CCCN1C(=O)[C@H](C)N)[C@@H](C)CC)[C@@H](C)CC)C(=O)N[C@@H](CCC(N)=O)C(=O)N[C@@H](CC(=O)O)C(=O)N[C@@H](C)C(=O)N[C@@H](C)C(=O)N[C@H](C(=O)N1CCC[C@H]1C(=O)N[C@@H](Cc1ccc(O)cc1)C(=O)N[C@@H](Cc1c[nH]cn1)C(=O)N1CCC[C@H]1C(=O)N1CCC[C@H]1C(=O)N[C@@H](C)C(=O)N[C@H](C(=O)N1CCC[C@H]1C(=O)N[C@@H](CC(N)=O)C(=O)N[C@@H](CC(N)=O)C(=O)N[C@@H](CCSC)C(=O)NCC(=O)N[C@@H](CC(C)C)C(=O)O)[C@@H](C)O)[C@@H](C)O` [HSV 35]: the IC50 amounted to 600 nM in experiment [1] (setting [10]); 600 nM in experiment [1] (setting [11]); 2450 nM in experiment [2]; 25000 nM in experiment [3] (IC50, DR11); 25000 nM in experiment [3] (IC50 DR11); 6790 nM in experiment [4]. In addition, the IC50 was 4500 nM in experiment [5] (setting [9]); greater than 100000 nM in experiment [8] (Class II MHC allele DP401); greater than 100000 nM in experiment [8] (Table V, […]); greater than 100000 nM in experiment [6] (Class II MHC allele DP402); greater than 100000 nM in experiment [6] (Table V, […]). For the same compound, the “T-cell responses recalled in HSV infected mice” value in experiment [7] was “either low or no response”. Further, the “immunodominance of epitopes in HSV-primed T-cell responses” value in experiment [7] is “immunodominant epitopes”.

Consider `CC[C@H](C)[C@H](NC(=O)[C@H](CCC(N)=O)NC(=O)[C@@H]1CCCN1C(=O)[C@H](C)NC(=O)[C@H](CCC(=O)O)NC(=O)[C@H](CO)NC(=O)[C@@H]1CCCN1C(=O)[C@H](C)NC(=O)[C@H](CC(N)=O)NC(=O)[C@H](CC(C)C)NC(=O)[C@H](CC(C)C)NC(=O)[C@@H](NC(=O)[C@H](CO)NC(=O)[C@H](CCCNC(=N)N)NC(=O)[C@H](CS)NC(=O)[C@H](C)NC(=O)[C@H](CCCNC(=N)N)NC(=O)[C@H](CCC(=O)O)NC(=O)[C@H](CC(C)C)NC(=O)[C@@H](NC(=O)[C@H](C)NC(=O)[C@H](Cc1ccc(O)cc1)NC(=O)[C@H](Cc1ccc(O)cc1)NC(=O)[C@@H](NC(=O)[C@@H](NC(=O)[C@@H](NC(=O)[C@@H]1CCCN1C(=O)[C@H](CC(C)C)NC(=O)[C@H](CO)NC(=O)[C@@H]1CCCN1C(=O)[C@@H]1CCCN1C(=O)[C@@H](N)CCC(N)=O)[C@@H](C)CC)[C@@H](C)O)C(C)C)C(C)C)C(C)C)C(=O)N[C@H](C(=O)N[C@@H](CCCNC(=N)N)C(=O)O)C(C)C` [HSV 36], for which the IC50 was 93 nM in experiment [1] (setting [10]); 93 nM in experiment [1] (setting [11]); 173 nM in experiment [2]; 120 nM in experiment [3] (IC50, DR11); 120 nM in experiment [3] (IC50 DR11); 18 nM in experiment [4]. For the same compound, the IC50 in experiment [5] worked out at 66 nM; in experiment [8] (Class II MHC allele DP401), 615 nM; in experiment [8] (Table V, […]), 615 nM; in experiment [6] (Class II MHC allele DP402), 98 nM; in experiment [6] (Table V, […]) it was 98 nM. In addition, the “immunodominance of epitopes in HSV-primed T-cell responses” value in experiment [7] is recorded as “immunodominant epitopes”.

By IC50 is commonly meant the concentration at which inhibition is half-maximal.

The values above are taken from patent US20080299140A1, “Immunogenic Composition and Peptide Sequences for Prevention and Treatment of an Hsv Condition” (priority 2002, published 2008).
